PMC5760651, “Peptidomimetic blockade of MYB in acute myeloid leukemia” (Nature Communications, 2018)
Non-standard residues stand in square brackets, D forms with d. Residues, ends and D or L forms follow the SMILES beside them.

Key:
C57BL/6J mice = test: Peripheral blood counts after 7 days of treatment; assay type: in vivo, mouse; settings: 25 mg/kg IP daily
Protocol: All mouse experiments were carried out in accordance with the Memorial Sloan Kettering Institutional Animal Care and Use Committee. For toxicity studies, female C57BL/6J mice (The Jackson Laboratory, Bar Harbor, Maine, USA) were treated with MYBMIM peptide suspended in PBS and administered daily through intraperitoneal injection at a dose of 25 mg/kg for a total of 7 days. Mice were sacrificed at the end of treatment for hematologic, biochemical and histologic analyses. For pharmacokinetic studies, C57BL/6J mice (The Jackson Laboratory, Bar Harbor, Maine, USA) were treated with a single IP injection of 25 mg/kg BIO-MYBMIM, and blood plasma was collected 30 min, 2 h, 4 h, and 24 h post-injection. Quantification of BIO-MYBMIM was measured using the Quant-Tag Biotin kit (Vector Labs, cat. # BDK-2000) following the manufacturer instructions. For patient-derived xenografts, two hundred thousand primary AML MLL-rearranged leukemia cells were suspended in […] of PBS and transplanted via tail vein injection into 8-week-old sublethally irradiated (200 rad) female NOD.Cg-Prkdc(scid)Il2rg(tm1Wjl)/SzJ mice (The Jackson Laboratory, Bar Harbor, Maine, USA). […] Mice were treated from days 3–17 of this study for a total of 14 days and then monitored daily with clinical examination for survival analysis.

AML cells = test: Flow cytometry of differentiation markers; assay type: cell-based, human
Protocol: Cells were resuspended to a concentration of 1 × 10^6 cells were plated in triplicate in a 12-well tissue culture plate. For assessment of annexin V staining, cells were washed with PBS and then resuspended in PBS with Annexin V-APC (BioLegend) and propidium iodide at a dilution of 1:1000. For intracellular detection of cleaved caspase 3, cells were fixed and permeabilized using the BD Cytofix/Cytoperm Fixation/Permeabilization solution according to the manufacturer’s instructions (BD Biosciences). Cells were then stained using the Alexa Fluor 647-conjugated anti-active caspase-3 (BD Biosciences) at a dilution of 1:50. Cells were incubated for 30 minutes room temperature in the dark, washed, and then analyzed using the BD LSRFortessa cell analyzer. For assessment of differentiation, cells were stained using the anti-human CD14 PE at a dilution of 1:20 (Affymetrix eBiosciences) and anti-human CD66b at a dilution of 1:20 (Affymetrix eBiosciences).

SMILES: CC[C@@H](C)[C@@H](NC(=O)[C@@H](CCCCN)NC(=O)[C@@H](CCC(=O)O)NC(=O)[C@@H](CC(C)C)NC(=O)[C@@H](CCC(=O)O)NC(=O)[C@@H](CC(C)C)NC(=O)[C@@H](CC(C)C)NC(=O)[C@@H](CC(C)C)NC(=O)[C@@H](CCSC)NC(=O)[C@@H](CO)NC(=O)[C@H](NC(=O)[C@@H](CCC(=O)O)NC(=O)[C@@H](CC(N)=O)NC(=O)[C@@H](CCC(=O)O)NC(=O)[C@@H](CC(C)C)NC(=O)[C@@H](CCCCN)NC(C)=O)[C@H](C)O)C(=O)N[C@H](CCCNC(=N)N)C(=O)N[C@H](CCCCN)C(=O)NCC(=O)NCC(=O)N[C@H](CCCNC(=N)N)C(=O)N[C@H](CCCNC(=N)N)C(=O)N[C@H](CCCNC(=N)N)C(=O)N[C@H](CCC(N)=O)C(=O)N[C@H](CCCNC(=N)N)C(=O)N[C@H](CCCNC(=N)N)C(=O)N[C@H](CCCCN)C(=O)N[C@H](CCCCN)C(=O)N[C@H](CCCNC(=N)N)C(=O)NCC(=O)N[C@H](Cc1ccc(O)cc1)C(N)=O [MYBMIM] (Ac-[dK][dL][dE][dN][dE][dT][dS][dM][dL][dL][dL][dE][dL][dE][dK][dI][dR][dK]GG[dR][dR][dR][dQ][dR][dR][dK][dK][dR]G[dY]-NH2)
- Peripheral blood counts (total leukocytes, lymphocytes, platelets, blood hemoglobin) (C57BL/6J mice): no significant changes
- CD14, CD66b and CD11b expression (AML cells): no significant changes
